Test system: Hong Kong/2369/2009 (H1N1) H275Y oseltamivir resistant
Type: cell-based, influenza virus

SMILES: CCC(CC)O[C@@H]1C=C(C(=O)O)C[C@H](NC(=N)N)[C@H]1NC(C)=O [GOC, 4-guanidinio oseltamivir carboxylate]
- activity against the Oseltamivir resistant strain: remains active
- EC50 (read-out: 50% effective concentration (EC50)): 1700 nM
